Data as given in US20030207886A1, “Preparation containing quinoxaline derivatives” (priority 2000, published 2003).

Test: Maxima of UV-A and UV-B absorption of quinoxaline derivatives in 2-propanol
Format: physicochemical
Conditions: 1 mg of substance per 100 ml of solvent; for UV-A (400 320 nm) Max. abs.: absorbance at UV-A maximum; for UV-B (280 320 nm) Max. abs.: absorbance at UV-B maximum; for UV-A (400 320 nm) λ [nm]: wavelength of UV-A maximum; for UV-B (280 320 nm) λ [nm]: wavelength of UV-B maximum
Experimental: The measurement was carried out in 2-propanol at a concentration of 1 mg of substance per 100 ml of solvent.

In the case of `O=C(O)c1cc(Nc2cnc3ccccc3n2)cc(C(=O)O)c1`, the “UV-A (400 320 nm) Max. abs.” value is reported as 0.319, the “UV-B (280 320 nm) Max. abs.” value is reported as 0.887 and the “UV-A (400 320 nm) λ [nm]” value is reported as 372.8 nm. The “UV-B (280 320 nm) λ [nm]” value was 286.9 nm.
With `CN(C)c1cnc2ccccc2n1` the “UV-A (400 320 nm) Max. abs.” value was 0.413 and the “UV-A (400 320 nm) λ [nm]” value was 378.0 nm.
With `COC(=O)CCc1ccc2nc3nc4ccccc4nc3n2c1` the “UV-A (400 320 nm) Max. abs.” value was 0.3747 and the “UV-A (400 320 nm) λ [nm]” value was 349.5 nm.
In the case of `Cc1ccc(/C=C/c2nc3ccccc3nc2/C=C/c2ccc(C)cc2)cc1`, the “UV-B (280 320 nm) Max. abs.” value is reported as 0.3327 and the “UV-B (280 320 nm) λ [nm]” value is reported as 316.0 nm.
In the case of `O=C(O)c1ccc(Nc2cnc3ccccc3n2)cc1`, the “UV-A (400 320 nm) Max. abs.” value is reported as 0.378, the “UV-B (280 320 nm) Max. abs.” value is reported as 1.141 and the “UV-A (400 320 nm) λ [nm]” value is reported as 374.1 nm. For the same molecule, the “UV-B (280 320 nm) λ [nm]” value was 297.2 nm.
For `CCOC(=O)c1nc2ccccc2[nH]c1=O`, the “UV-A (400 320 nm) Max. abs.” value was 0.245, the “UV-B (280 320 nm) Max. abs.” value was 0.279 and the “UV-A (400 320 nm) λ [nm]” value was 355.8 nm. For the same molecule, the “UV-B (280 320 nm) λ [nm]” value was 290.0 nm.
In the case of `CC(=O)c1ccc(Nc2cnc3ccccc3n2)cc1`, the “UV-A (400 320 nm) Max. abs.” value is reported as 0.622, the “UV-B (280 320 nm) Max. abs.” value is reported as 1.062 and the “UV-A (400 320 nm) λ [nm]” value is reported as 374.9 nm. The “UV-B (280 320 nm) λ [nm]” value was 314.7 nm.
With `O=C(O)c1ccc(NCc2cnc3ccccc3n2)cc1` the “UV-B (280 320 nm) Max. abs.” value was 0.837 and the “UV-B (280 320 nm) λ [nm]” value was 302.9 nm.
In the case of `COc1cc(Nc2nc3ccccc3nc2-c2ccccc2)cc(OC)c1OC`, the “UV-A (400 320 nm) Max. abs.” value is reported as 0.175, the “UV-B (280 320 nm) Max. abs.” value is reported as 0.475 and the “UV-A (400 320 nm) λ [nm]” value is reported as 390.4 nm. The “UV-B (280 320 nm) λ [nm]” value was 287.6 nm.
In the case of `COc1ccc(Nc2cnc3ccccc3n2)cc1`, the “UV-A (400 320 nm) Max. abs.” value is reported as 0.306, the “UV-B (280 320 nm) Max. abs.” value is reported as 0.837 and the “UV-A (400 320 nm) λ [nm]” value is reported as 386.9− nm. The “UV-B (280 320 nm) λ [nm]” value was 291.1 nm.
For `Brc1ccc2nc3nc4ccccc4nc3n2c1`, the “UV-A (400 320 nm) Max. abs.” value was 0.4113 and the “UV-A (400 320 nm) λ [nm]” value was 354 nm.
For `O=C(/C=C/C=C/c1ccccc1)c1cnc2ccccc2n1`, the “UV-A (400 320 nm) Max. abs.” value was 1.0497, the “UV-B (280 320 nm) Max. abs.” value was 0.6584 and the “UV-A (400 320 nm) λ [nm]” value was 365.0 nm. The “UV-B (280 320 nm) λ [nm]” value was 302.0 nm.
For `CCOC(=O)c1nc2ccccc2nc1Nc1cc(F)c(F)cc1C(=O)O`, the “UV-A (400 320 nm) Max. abs.” value was 0.1187, the “UV-B (280 320 nm) Max. abs.” value was 0.4067 and the “UV-A (400 320 nm) λ [nm]” value was 381.5 nm. The “UV-B (280 320 nm) λ [nm]” value was 287.0 nm.
With `CC(C)c1ccc(/C=C/C(=O)c2cnc3ccccc3n2)cc1` the “UV-A (400 320 nm) Max. abs.” value was 0.7731 and the “UV-A (400 320 nm) λ [nm]” value was 343.0 nm.
In the case of `CCC(=O)c1cnc2ccccc2n1`, the “UV-B (280 320 nm) Max. abs.” value is reported as 0.3236 and the “UV-B (280 320 nm) λ [nm]” value is reported as 307.0 nm.
In the case of `Nc1nc2ccccc2nc1Cl`, the “UV-A (400 320 nm) Max. abs.” value is reported as 0.427 and the “UV-A (400 320 nm) λ [nm]” value is reported as 353.4 nm.
In the case of `O=C(/C=C/c1ccc2c(c1)OCO2)c1cnc2ccccc2n1`, the “UV-A (400 320 nm) Max. abs.” value is reported as 0.5101, the “UV-B (280 320 nm) Max. abs.” value is reported as 0.4556 and the “UV-A (400 320 nm) λ [nm]” value is reported as 381.0 nm. The “UV-B (280 320 nm) λ [nm]” value was 305.0 nm.
In the case of `CCOC(=O)c1nc2ccccc2nc1Cl`, the “UV-A (400 320 nm) Max. abs.” value is reported as 0.243 and the “UV-A (400 320 nm) λ [nm]” value is reported as 322.9 nm.
For `Cc1nc2ccc(Cl)cc2nc1C`, the “UV-A (400 320 nm) Max. abs.” value was 0.400 and the “UV-A (400 320 nm) λ [nm]” value was 322.0 nm.
With `Cc1ccc(/C=C/c2nc3ccccc3[nH]c2=O)cc1` the “UV-A (400 320 nm) Max. abs.” value was 0.4660 and the “UV-A (400 320 nm) λ [nm]” value was 336.0 nm.
With `Fc1nc2ccccc2nc1N(c1ncccn1)c1nc2ccccc2nc1F` the “UV-A (400 320 nm) Max. abs.” value was 0.446 and the “UV-A (400 320 nm) λ [nm]” value was 329.8 nm.
In the case of `CCOC(=O)c1ccc(Nc2cnc3ccccc3n2)cc1`, the “UV-A (400 320 nm) Max. abs.” value is reported as 0.5414, the “UV-B (280 320 nm) Max. abs.” value is reported as 1.2839 and the “UV-A (400 320 nm) λ [nm]” value is reported as 375.0 nm. For the same molecule, the “UV-B (280 320 nm) λ [nm]” value was 306.0 nm.
For `O=c1[nH]c2ccccc2nc1/C=C/C=C/c1ccccc1`, the “UV-B (280 320 nm) Max. abs.” value was 0.6004 and the “UV-B (280 320 nm) λ [nm]” value was 281.5 nm.
For `Nc1nc2ccccc2nc1NC(=O)c1cc(C(F)(F)F)cc(C(F)(F)F)c1`, the “UV-A (400 320 nm) Max. abs.” value was 0.4130 and the “UV-A (400 320 nm) λ [nm]” value was 354.0 nm.
With `O=c1[nH]c2ccccc2nc1/C=C/c1ccccc1` the “UV-A (400 320 nm) Max. abs.” value was 0.7324 and the “UV-A (400 320 nm) λ [nm]” value was 388.5 nm.
With `Clc1ccc(Nc2cnc3ccccc3n2)c(Cl)c1` the “UV-A (400 320 nm) Max. abs.” value was 0.248, the “UV-B (280 320 nm) Max. abs.” value was 0.757 and the “UV-A (400 320 nm) λ [nm]” value was 365.2 nm. The “UV-B (280 320 nm) λ [nm]” value was 280.7 nm.
